Values of other authors, collected in patent EP0611304B1, “USE OF […] (ACEMANNAN) FOR THE REGULATION OF BLOOD C[…] AND FOR REMOVING PLAQUES IN BLOOD VESSELS” (CARRINGTON LABORATORIES, INC., priority 1991, dated 1993).

System: CEM cells infected with HTLV-IIIRFII virus
Conditions: 0.001 µg/ml AZT alone

Cc1cn([C@H]2C[C@H](N=[N+]=[N-])[C@@H](CO)O2)c(=O)[nH]c1=O [AZT, Zidovudine]
increase in viability of infected CEM cells: no more than 10%
